# In ChEMBL document CHEMBL1158801, “Acylphloroglucinol derivatives from Mahurea palustris” (J Nat Prod, 2005):
# The source made the active and inactive calls. The calls are words filed in the database; no cut-off is given here.
# Experiments:
# DNA polymerase beta = DNA polymerase beta (Homo sapiens, UniProt P06746); assay: Inhibition of human recombinant DNA polymerase beta assessed as fluorescein-12-dCTP incorporation by fluorimetry
# [1] = tested on: Human immunodeficiency virus; assay: Inhibition of HIV reverse transcriptase at 50 uM
Compound,Activity (DNA polymerase beta),fold change (FC) [1],IC50 (DNA polymerase beta)
CC(C)=CCC1CC2(CC=C(C)C)C(=O)C(C(=O)C(C)C)=C(O)OC2=C(C(CC(=O)O)c2ccccc2)C1(C)C (stereo not given),inactive,,
CCC(C)C(=O)C1=C(O)OC2=C(C(CC(=O)O)c3ccccc3)C(C)(C)C(CCC(C)(C)NC(C)=O)CC2(CC=C(C)C)C1=O (stereo not given),inactive,,
CCC(C)C(=O)C1=C(O)OC2=C(C(CC(=O)O)c3ccccc3)C(C)(C)C(CCC(C)(C)O)CC2(CC=C(C)C)C1=O (stereo not given),inactive,,
CCC(C)C(=O)C1=C(O)OC2=C(C(CC(=O)O)c3ccccc3)C(C)(C)C(CCC(C)(C)OC(=O)C(F)(F)F)CC2(CC=C(C)C)C1=O (stereo not given),inactive,,
CC(C)=CCC1CC2(CC=C(C)C)C(=O)C(C(=O)CC(C)C)=C(O)OC2=C(C(CC(=O)O)c2ccccc2)C1(C)C (stereo not given) [MAHUREONE A],,2,28 µM
CCC(C)C(=O)C1=C(O)OC2=C(C(CC(=O)O)c3ccccc3)C(C)(C)C(CC=C(C)C)CC2(CC=C(C)C)C1=O (stereo not given) [MAHUREONE B],,,73 µM
CCCC(CC(=O)O)C1=C2OC(O)=C(C(=O)CC(C)C)C(=O)C2(CC=C(C)C)CC(CC=C(C)C)C1(C)C (stereo not given) [MAHUREONE D],,,12 µM
CCCC(CC(=O)O)C1=C2OC(O)=C(C(=O)C(C)CC)C(=O)C2(CC=C(C)C)CC(CC=C(C)C)C1(C)C (stereo not given) [MAHUREONE E],,,342 µM
Nc1ccn([C@H]2CC[C@@H](COP(=O)(O)OP(=O)(O)OP(=O)(O)O)O2)c(=O)n1 [ddCTP SODIUM],,,1.3 µM
